Experimental data as given in patent US20250339569A1, “CARBONIC ANHYDRASE IX LIGANDS” (priority 2021, published 2025).
Read-outs that look alike come from different tables or passages of the source.

Assays:
[1] = Pharmacokinetic characterization in healthy mice; assay type: in vivo, CD-1 mice; conditions: male, CD-1, plasma, iv, mouse; for clearance: read-out: Clearance (CL); for half-life: read-out: terminal elimination half-life (converted); for Vd: read-out: volume of distribution (Vd)
Method: The pharmacokinetics of DPI-4452 after a single intravenous (i.v.) dose were investigated in healthy mice. […] Plasma and urine samples collected after dosing were analyzed using a LC-HRMS (liquid chromatography coupled with high-resolution mass spectrometry) assay method. Concentration values were used for pharmacokinetic calculations.
Male CD-1 mice (3 animals per time point and per dose level; overall, 28.2-37.6 g body weight) were administered intravenously in the tail vein in a 2 mL/kg dosing volume. Blood samples were collected in K2EDTA tubes at 5 min, 15 min, 30 min, 1 h, 2 h, 4 h, 8 h, and urine was collected over 8 hours post dose. The blood samples were kept on wet ice until plasma separation by centrifugation at room temperature; 10 min; 2500 G, which was performed within 60 min after sampling. The plasma samples were transferred into plastic tubes, frozen and stored at −80° C. until analysis.
Plasma and urine samples were analyzed by LC-HRMS after solid phase extraction, using a stable isotope-labeled internal standard (^13C6, ^15N-DPI-4452). Chromatographic separation was run on a Waters Acquity HSS T3 C18 2.1×50 mm, 1.8 μm column. Detection was achieved on a Sciex API6600 TOF mass spectrometer. The lower limit of quantification was 1.00 ng/mL in plasma and urine.
The non-compartmental (NCA) pharmacokinetic analysis of plasma concentration data was conducted using Phoenix 64 WinNonlin (Build 8.3.3.33) software. Nominal doses were used for all animals. The terminal phase half-life (T1/2) was calculated by least-squares regression analysis of the terminal linear part of the log concentration-time curve. The area under the plasma concentration-time curve (AUC) was determined with the linear trapezoidal rule for increasing values and log trapezoidal rule for decreasing values up to the last measurable concentration.

[2] = Extended single-dose toxicity study including safety pharmacology endpoints, i.v. bolus (GLP); assay type: in vivo, beagle dogs; conditions: for tlast: median; for half-life / clearance / AUC(0-t) / level at 5 min / Vd: beagle, plasma; for half-life: harmonic mean; for level at 5 min: read-out: C5 min; for Vd: read-out: Vss
Method: The following parameters and endpoints were evaluated: mortality, clinical observations, body weights, food consumption, body temperature, local reactions, ophthalmology, clinical pathology parameters (hematology, coagulation, clinical chemistry, and urinalysis), cardiovascular and respiratory safety pharmacology endpoints along with FOB evaluation, organ weights, and macroscopic and microscopic examinations, and TK parameters. The animals from subset A (3 males and 3 females per group) were sampled for toxicokinetics (TK) at: pre-dose, 5 min, 15 min, 30 min, 1 h, 2 h, 3 h and 6 h. Blood samples were collected in K2EDTA tubes. Plasma was prepared by centrifugation (2500 g for 10 minutes, +4° C.) within 1 hour after collection, and then frozen within 1 hour after centrifugation and stored at −80° C. […] Chromatographic separation was achieved using a Waters Acquity UPLC system with a Waters Acquity HSS T3 C18 2.1×50 mm, 1.8 μm column. Chromatography was conducted at 50° C. at a flow rate of 0.7 mL/min using a mobile phase consisting of A: 1% formic acid in acetonitrile, and B: 1% formic acid in water, according to the following linear gradient: 0 to 0.1 min: 90% B; 0.1 to 4.1 min: from 90% B to 74% B; 4.1 to 4.2 min: from 74% B to 5% B; 4.2 to 4.6 min: 5% B; 4.6 to 4.7 min: from 5% B to 90% B; 4.7-5.1 min; 90% B. Detection was performed using a Sciex API6600 TOF mass spectrometer. Toxicokinetic parameters were estimated from concentration-time data using Phoenix pharmacokinetic software (version 6.4, Certara L. P.). A non-compartmental approach consistent with the bolus intravenous injection was used for parameter estimation.
The test item treatment led to unaffected body weights, weight gains, and food intake. Likewise, no treatment-related abnormalities were reported during ophthalmic examinations, urinalysis, blood biochemistry, coagulation, and hematology investigations. There were no related organ weight changes and macroscopic and microscopic observations at early and late necropsies. Jacketed external telemetry was used to evaluate the potential cardiovascular and respiratory effects in the Subset B. Cardiorespiratory telemetry recordings were performed during the pre-test, Day 1 and 14. The electrocardiogram (ECG) parameters (heart rate, PQ interval duration, QRS complex duration, and QT interval duration) were collected continuously after dosing over 10-minute periods up to 6 h and over 15-minute periods up to 24 h. Miyazaki's QT correction method (Miyazaki, H. & Tagawa, M. Japanese Association for Laboratory Animal Science 2002, 51, 465-75) was used to correct the influence of heart rate. […] Arterial blood pressure parameters (systolic and diastolic blood pressure and mean arterial pressure) were measured continuously during consecutive 30-minute periods at pre-dose and for up to 6 h after dosing and over consecutive 60-minute periods up to 24 h after dosing. The respiratory rate was monitored on the pre-test, Day 1 and Day 14 at 0.5, 1, 2, 3, 4, 6, 8, 12, 16, 20, and 24 h. […] The potential effects on central nervous system parameters were evaluated under restrained and non-restrained conditions using a FOB in Subset A. Neurologic, autonomic, and behavioral investigations were performed in the pre-test, pre-dose, and 1 hour after dosing on Day 1.

[3] = dog, iv, 16 ug/kg, Female, 16 μg/kg single i.v. bolus, mean n = 3
[4] = dog, iv, 16 ug/kg, Male, 16 μg/kg single i.v. bolus, mean n = 3
[5] = dog, iv, 80 ug/kg, Female, 80 μg/kg single i.v. bolus, mean n = 3
[6] = dog, iv, 80 ug/kg, Male, 80 μg/kg single i.v. bolus, mean n = 3
[7] = dog, iv, 400 ug/kg, Female, 400 μg/kg single i.v. bolus, mean n = 3
[8] = dog, iv, 400 ug/kg, Male, 400 μg/kg single i.v. bolus, mean n = 3

For `CC(C)C[C@@H]1NC(=O)[C@H](Cc2cccc(NC(=O)CCCS(N)(=O)=O)c2)NC(=O)[C@H](CC(=O)O)NC(=O)[C@H]2CCCN2C(=O)[C@H](CCC(=O)O)NC(=O)[C@@H](NC(=O)[C@H](CCC(N)=O)NC(=O)CN2CCN(C(=O)CN3CCN(CC(=O)O)CCN(CC(=O)O)CCN(CC(=O)O)CC3)CC2)CSCc2cccc(c2)CSC[C@@H](C(N)=O)NC(=O)[C@H](CO)NC(=O)[C@H](Cc2c[nH]c3ccccc23)NC(=O)[C@H]([C@@H](C)O)NC1=O` [DPI-4452, DOTA-PPAc-Gln-[Cys(3MeBn)-Glu-pro-Asp-Af3(Cpsu)-Leu-Thr-Trp-Ser-Cys]-NH2], the AUC(0-inf) ([1]; i.v. 0.7 mg/kg) was 424 ng·h/mL, the clearance ([1]; i.v. 0.7 mg/kg) was 27.5 mL/min/kg and the half-life ([1]; i.v. 0.7 mg/kg) was 16.8 min. For the same molecule, the Vd ([1]; i.v. 0.7 mg/kg) was 0.408 L/kg, the AUC(0-inf) ([1]; i.v. 5.5 mg/kg) was 2820 ng·h/mL and the clearance ([1]; i.v. 5.5 mg/kg) was 32.5 mL/min/kg. The half-life ([1]; i.v. 5.5 mg/kg) was 27.9 min, the Vd ([1]; i.v. 5.5 mg/kg) was 0.455 L/kg and the “human equivalent dose of the NOAEL” value ([2]; 60 kg human) was 13.3 mg. The “central nervous system effects (FOB)” value ([2]; 1 hour after dosing, 16, 80, 400 μg/kg) was “No effects were observed on the central nervous system”, the tlast ([2]; Female, 16 μg/kg single i.v. bolus) was 1 h and the tlast ([2]; Female, 80 μg/kg single i.v. bolus) was 3 h. It also gave an AUClast ([2]; Female, 400 μg/kg single i.v. bolus, mean n = 3) of 771 ng·h/mL, a tlast ([2]; Female, 400 μg/kg single i.v. bolus) of 3 h and a tlast ([2]; Male, 16 μg/kg single i.v. bolus) of 1 h. It also gave a tlast ([2]; Male, 80 μg/kg single i.v. bolus) of 2 h, an AUClast ([2]; Male, 400 μg/kg single i.v. bolus, mean n = 3) of 854 ng·h/mL and a tlast ([2]; Male, 400 μg/kg single i.v. bolus) of 3 h. The tolerability ([2]; beagle dogs, single i.v. bolus up to 400 μg/kg) was “well tolerated”, the half-life ([2]; dog, iv, 16 ug/kg, Female, 16 μg/kg single i.v. bolus) was 14.3 min and the clearance [2, 3] was 21.2 mL/min/kg. For the same molecule, the AUC(0-t) ([2]; dog, iv, 16 ug/kg, Female, 16 μg/kg single i.v. bolus, mean n = 3, read-out: AUClast) was 12.4 ng·h/mL, the level at 5 min [2, 3] was 37.7 ng/mL and the Vd [2, 3] was 0.3 L/kg. For the same molecule, the half-life ([2]; dog, iv, 16 ug/kg, Male, 16 μg/kg single i.v. bolus) was 15.5 min, the clearance [2, 4] was 18.3 mL/min/kg and the AUC(0-t) ([2]; dog, iv, 16 ug/kg, Male, 16 μg/kg single i.v. bolus, mean n = 3, read-out: AUClast) was 14 ng·h/mL. The level at 5 min [2, 4] was 43.5 ng/mL, the Vd [2, 4] was 0.26 L/kg and the half-life ([2]; dog, iv, 80 ug/kg, Female, 80 μg/kg single i.v. bolus) was 23.2 min. The clearance [2, 5] was 9.27 mL/min/kg, the AUC(0-t) ([2]; dog, iv, 80 ug/kg, Female, 80 μg/kg single i.v. bolus, mean n = 3, read-out: AUClast) was 144 ng·h/mL and the level at 5 min [2, 5] was 346 ng/mL. It also gave a Vd [2, 5] of 0.21 L/kg, a half-life ([2]; dog, iv, 80 ug/kg, Male, 80 μg/kg single i.v. bolus) of 21.7 min and a clearance [2, 6] of 10.1 mL/min/kg. It also gave an AUC(0-t) ([2]; dog, iv, 80 ug/kg, Male, 80 μg/kg single i.v. bolus, mean n = 3, read-out: AUClast) of 132 ng·h/mL, a level at 5 min [2, 6] of 332 ng/mL and a Vd [2, 6] of 0.21 L/kg. The half-life ([2]; dog, iv, 400 ug/kg, Female, 400 μg/kg single i.v. bolus) was 21.8 min, the clearance [2, 7] was 8.63 mL/min/kg and the level at 5 min [2, 7] was 1760 ng/mL. For the same molecule, the Vd [2, 7] was 0.19 L/kg, the half-life ([2]; dog, iv, 400 ug/kg, Male, 400 μg/kg single i.v. bolus) was 23.7 min and the clearance [2, 8] was 7.88 mL/min/kg. The level at 5 min [2, 8] was 1840 ng/mL, the Vd [2, 8] was 0.19 L/kg and the NOAEL at 14 days ([2]; both sexes, dog, in vivo, iv, beagle dogs, single i.v. bolus) was 0.4 mg/kg. The AUC(0-t) ([2]; female, dog, iv, 400 ug/kg, females, 400 μg/kg i.v., read-out: mean AUCtlast at the NOAEL) was 771 ng·h/mL, the “cardiovascular and respiratory safety pharmacology” value ([2]; jacketed external telemetry, 16, 80, 400 μg/kg) was “no related effect on cardiovascular or respiratory parameters” and the AUC(0-t) ([2]; male, dog, iv, 400 ug/kg, males, 400 μg/kg i.v., read-out: mean AUCtlast at the NOAEL) was 854 ng·h/mL. For the same molecule, the “NOAEL cover of the predicted human dose” value ([2]; total ligand mass dose 500 μg/patient) was “more than 25 times”.
